According to PMC5453931, “Cathelicidin-trypsin inhibitor loop conjugate represents a promising antibiotic candidate with protease stability” (Scientific Reports, 2017):
≈ marks a conversion by molar mass, not a printed value. Where a SMILES comes first, the peptide text is derived from it. Bridges are numbered along the chain shown (N, C = ends).

Columns and labels:
E. coli 08040726 = test: MIC, two-fold broth microdilution (second listing of the strain number); assay type: cell-based; conditions: Gram-negative, MH broth, 37 °C, 18 h, mean of three independent experiments in duplicates
Experimental: (§1) A two-fold broth microdilution method described in our previous paper was used to determine the antimicrobial activities of parental and hybrid peptides. More than 30 strains including Gram-negative bacteria, Gram-positive bacteria and fungi were used in the current assay, in which the standard strains were stored in our lab and the clinical strains were collected from local hospitals. Briefly, bacteria were incubated in Mueller-Hinton broth (MH broth) at 37 °C to exponential phase and diluted to 10^6 CFU/mL. A serial dilution of peptide sample were prepared in 96-well microtiter plates (50 μL) and mixed with equal volume of microbial inoculums (50 μL). The plate was slowly shaken in the microbial incubator, and measured at A595 after incubation at 37 °C for 18 h. The minimal concentrations at which no microbial growth occurred were recorded as MIC (minimal inhibitory concentration) values. The traditional antibiotic ampicillin was used as positive control. The results are shown in an average of the MICs obtained from three independent experiments.

Aeromonas sobria = test: microbe, parasite or virus in culture; assay type: cell-based; conditions: Aquatic pathogenic bacteria; two-fold broth microdilution, 37 °C, 18 h; mean of three independent experiments in duplicates
Experimental: as §1

Aeromonas veronii = test: microbe, parasite or virus in culture; assay type: cell-based; conditions: Aquatic pathogenic bacteria; two-fold broth microdilution, 37 °C, 18 h; mean of three independent experiments in duplicates
Experimental: as §1

[1] = tested on: Bacillus subtilis 08042313; test: microbe, parasite or virus in culture; assay type: cell-based; conditions: Gram-positive; two-fold broth microdilution, MH broth, 37 °C, 18 h; mean of three independent experiments in duplicates
Experimental: as §1

[2] = tested on: Candida albicans 08030102; test: microbe, parasite or virus in culture; assay type: cell-based; conditions: Fungi; two-fold broth microdilution, 37 °C, 18 h; mean of three independent experiments in duplicates
Experimental: as §1

Candida glabrata 08A802 = test: microbe, parasite or virus in culture; assay type: cell-based; conditions: Fungi; two-fold broth microdilution, 37 °C, 18 h; mean of three independent experiments in duplicates
Experimental: as §1

E. Coli 08032823 = test: microbe, parasite or virus in culture; assay type: cell-based; conditions: Gram-negative; two-fold broth microdilution, MH broth, 37 °C, 18 h; mean of three independent experiments in duplicates
Experimental: as §1

[3] = tested on: Enterococcus faecium 08052315; test: microbe, parasite or virus in culture; assay type: cell-based; conditions: Gram-positive; two-fold broth microdilution, MH broth, 37 °C, 18 h; mean of three independent experiments in duplicates
Experimental: as §1

[4] = tested on: Escherichia coli ATCC25922; test: microbe, parasite or virus in culture; assay type: cell-based; conditions: Gram-negative; two-fold broth microdilution, MH broth, 37 °C, 18 h; mean of three independent experiments in duplicates
Experimental: as §1

K. Pneumoniae 08031012 = test: microbe, parasite or virus in culture; assay type: cell-based; conditions: Gram-negative; two-fold broth microdilution, MH broth, 37 °C, 18 h; mean of three independent experiments in duplicates
Experimental: as §1

K. Pneumoniae 08040202 = test: microbe, parasite or virus in culture; assay type: cell-based; conditions: Gram-negative; two-fold broth microdilution, MH broth, 37 °C, 18 h; mean of three independent experiments in duplicates
Experimental: as §1

P. Aeruginosa 08021015 = test: microbe, parasite or virus in culture; assay type: cell-based; conditions: Gram-negative; two-fold broth microdilution, MH broth, 37 °C, 18 h; mean of three independent experiments in duplicates
Experimental: as §1

S. Aureus 08032706 = test: microbe, parasite or virus in culture; assay type: cell-based; conditions: Gram-positive; two-fold broth microdilution, MH broth, 37 °C, 18 h; mean of three independent experiments in duplicates
Experimental: as §1

S. Aureus 08032810 = test: microbe, parasite or virus in culture; assay type: cell-based; conditions: Gram-positive; two-fold broth microdilution, MH broth, 37 °C, 18 h; mean of three independent experiments in duplicates
Experimental: as §1

[5] = tested on: Shigella dysenteriae 0804203; test: microbe, parasite or virus in culture; assay type: cell-based; conditions: Gram-negative; two-fold broth microdilution, MH broth, 37 °C, 18 h; mean of three independent experiments in duplicates
Experimental: as §1

Vibrio brasiiensis = test: microbe, parasite or virus in culture; assay type: cell-based; conditions: Aquatic pathogenic bacteria; two-fold broth microdilution, 37 °C, 18 h; mean of three independent experiments in duplicates
Experimental: as §1

Vibrio cholerae = test: microbe, parasite or virus in culture; assay type: cell-based; conditions: Aquatic pathogenic bacteria; two-fold broth microdilution, 37 °C, 18 h; mean of three independent experiments in duplicates
Experimental: as §1

E. Coli 08032813 = test: MIC, two-fold broth microdilution; assay type: cell-based; conditions: Gram-negative; two-fold broth microdilution, MH broth, 37 °C, 18 h; mean of three independent experiments in duplicates
Experimental: as §1

[6] = tested on: Staphylococcus epidermidis; test: MIC, two-fold broth microdilution; assay type: cell-based; conditions: Gram-positive; two-fold broth microdilution, MH broth, 37 °C, 18 h; mean of three independent experiments in duplicates
Experimental: as §1

Vibrio Parahaemolyticus = test: MIC, two-fold broth microdilution; assay type: cell-based; conditions: Aquatic pathogenic bacteria; two-fold broth microdilution, 37 °C, 18 h; mean of three independent experiments in duplicates
Experimental: as §1

08030209 = test: microbe, parasite or virus in culture; assay type: cell-based, Arcyria cinerea; conditions: Fungi; two-fold broth microdilution, 37 °C, 18 h; mean of three independent experiments in duplicates
Experimental: as §1

trypsin = test: Trypsin inhibition assay (NBLAN hydrolysis, Dixon method); assay type: biochemical; conditions: 50 mM Tris–HCl pH 7.8, trypsin 0.1 mg/mL, 5 min pre-incubation at 37 °C, substrate NBLAN 48, 96, 192 μg/mL, 405 nm
Experimental: The inhibition effect on the hydrolysis of synthetic chromogenic substrate by trypsin was assayed in 50 mM Tris–HCl, pH 7.8 buffer at room temperature. The trypsin of final concentration of 0.1 mg/mL and different amounts of the hybrid peptide (final concentrations ranging from 0 to 0.16 μg/mL) were pre-incubated for 5 min at 37 °C. N-α-Benzoyl-DL-arginine p-nitroanilide hydrochloride (NBLAN) was used as a substrate for trypsin. The reaction was initiated by the addition of NBLAN with a final concentration of 48, 96 and 192 μg/mL, respectively. The formation of yellow product, p-nitroaniline was monitored continuously at 405 nm[61]. The inhibition constant Ki of the hybrid peptides were determined according to the method of Dixon (1953)[62].

Compound: CC[C@H](C)[C@@H]1NC(=O)[C@H](CO)NC(=O)[C@H](CCCCN)NC(=O)[C@H]([C@@H](C)O)NC(=O)[C@H](Cc2c[nH]c3ccccc23)NC(=O)[C@@H](N)CSSC[C@@H](C(=O)N[C@@H](CCCCN)C(=O)N[C@@H](Cc2ccccc2)C(=O)N[C@@H](Cc2ccccc2)C(=O)N[C@@H](CCCCN)C(=O)N[C@@H](CCCNC(=N)N)C(=O)N[C@@H](CC(C)C)C(=O)N[C@@H](CC(C)C)C(=O)N[C@@H](CCCCN)C(=O)N[C@@H](CO)C(=O)N[C@H](C(=O)N[C@@H](CCCNC(=N)N)C(=O)N[C@@H](CCCNC(=N)N)C(=O)N[C@@H](C)C(=O)N[C@H](C(=O)N[C@@H](CCCCN)C(=O)N[C@@H](CCCCN)C(=O)N[C@@H](Cc2ccccc2)C(N)=O)C(C)C)C(C)C)NC(=O)[C@@H]2CCCN2C(=O)[C@H](CCCCN)NC(=O)[C@@H]2CCCN2C(=O)[C@@H]2CCCN2C1=O [TIH3] (H-CWTKSIPPKPCKFFKRLLKSVRRAVKKF-NH2; disulfide 1-11)
- MIC E. Coli 08040726 (second line with this strain number) (E. coli 08040726): — (no detectable activity in MIC assay in dose of 200 µg/mL or in trypsin inhibition assay at concentration of 160 μg/mL)
- MIC Aeromonas sobria (Aeromonas sobria): — (no detectable activity in MIC assay in dose of 200 µg/mL or in trypsin inhibition assay at concentration of 160 μg/mL)
- MIC Aeromonas veronii (Aeromonas veronii): — (no detectable activity in MIC assay in dose of 200 µg/mL or in trypsin inhibition assay at concentration of 160 μg/mL)
- MIC Bacillus subtilis 08042313 [1]: — (no detectable activity in MIC assay in dose of 200 µg/mL or in trypsin inhibition assay at concentration of 160 μg/mL)
- MIC Candida albicans 08030102 [2]: — (no detectable activity in MIC assay in dose of 200 µg/mL or in trypsin inhibition assay at concentration of 160 μg/mL)
- MIC Candida glabrata 08A802 (Candida glabrata 08A802): — (no detectable activity in MIC assay in dose of 200 µg/mL or in trypsin inhibition assay at concentration of 160 μg/mL)
- MIC E. Coli 08032823 (E. Coli 08032823): — (no detectable activity in MIC assay in dose of 200 µg/mL or in trypsin inhibition assay at concentration of 160 μg/mL)
- MIC Enterococcus faecium 08052315 [3]: — (no detectable activity in MIC assay in dose of 200 µg/mL or in trypsin inhibition assay at concentration of 160 μg/mL)
- MIC Escherichia coli ATCC25922 [4]: — (no detectable activity in MIC assay in dose of 200 µg/mL or in trypsin inhibition assay at concentration of 160 μg/mL)
- MIC K. Pneumoniae 08031012 (K. Pneumoniae 08031012): — (no detectable activity in MIC assay in dose of 200 µg/mL or in trypsin inhibition assay at concentration of 160 μg/mL)
- MIC K. Pneumoniae 08040202 (K. Pneumoniae 08040202): — (no detectable activity in MIC assay in dose of 200 µg/mL or in trypsin inhibition assay at concentration of 160 μg/mL)
- MIC P. Aeruginosa 08021015 (P. Aeruginosa 08021015): — (no detectable activity in MIC assay in dose of 200 µg/mL or in trypsin inhibition assay at concentration of 160 μg/mL)
- MIC S. Aureus 08032706 (S. Aureus 08032706): — (no detectable activity in MIC assay in dose of 200 µg/mL or in trypsin inhibition assay at concentration of 160 μg/mL)
- MIC S. Aureus 08032810 (S. Aureus 08032810): — (no detectable activity in MIC assay in dose of 200 µg/mL or in trypsin inhibition assay at concentration of 160 μg/mL)
- MIC Shigella dysenteriae 0804203 [5]: — (no detectable activity in MIC assay in dose of 200 µg/mL or in trypsin inhibition assay at concentration of 160 μg/mL)
- MIC Vibrio brasiiensis (Vibrio brasiiensis): — (no detectable activity in MIC assay in dose of 200 µg/mL or in trypsin inhibition assay at concentration of 160 μg/mL)
- MIC Vibrio cholerae (Vibrio cholerae): — (no detectable activity in MIC assay in dose of 200 µg/mL or in trypsin inhibition assay at concentration of 160 μg/mL)
- MIC E. Coli 08032813 (E. Coli 08032813): — (no detectable activity in MIC assay in dose of 200 µg/mL or in trypsin inhibition assay at concentration of 160 μg/mL)
- MIC Staphylococcus epidermidis [6]: — (no detectable activity in MIC assay in dose of 200 µg/mL or in trypsin inhibition assay at concentration of 160 μg/mL)
- MIC Vibrio Parahaemolyticus (Vibrio Parahaemolyticus): 37.5 µg/mL (≈ 11.1 µM)
- MIC Arcyria cinerea 08030209 08030209: — (no detectable activity in MIC assay in dose of 200 µg/mL or in trypsin inhibition assay at concentration of 160 μg/mL)
- Ki (trypsin): 7.5 µM
